Test results taken from US20240415793A1, “Neuroprotective composition comprising pyruvate and citrate” (N.V. Nutricia, priority 2022, published 2024).

Legend:
[1] = tested on: Phosphofructokinase 1 (PFK1); conditions: tissue- and brain-specific isoforms; cited from earlier work
[2] = tested on: primary rat neuronal-glial cell cultures; assay: Seahorse assay (OCR/ECAR), acute 1 h nutrient pre-incubation, resting or seizure-like conditions; format: cell-based; conditions: for increase in OM-induced glycolytic rates (tended): FIG. 3D
[3] = tested on: primary mouse neuroglial cultures; assay: Cell death by high content imaging (Hoechst/NeuN nuclear shrinkage) after chronic hyperstimulation; format: cell-based; conditions: 1 mM
Experimental: To determine whether pyruvate and citrate protect neurons and glial cells from cell death induced by chronic electrical hyperstimulation. To assess protection from cell death induced by repeated hyperstimulation, primary mouse neuroglial cultures were assayed. Neuroglial cell cultures were prepared and grown until DIV14 as described above. From DIV14 until DIV17 they were switched to NBM containing B27, low (2.5 mM) glucose, and low (0.1 mM) Mg^2+ or high (0.8 mM) Mg^2+. Incubation in low (0.1 mM) Mg^2+ medium increases the neuronal firing rates, thus creating a state of chronic hyperstimulation. The test nutrients (pyruvate or citrate) were supplied through the medium from DIV14 until DIV17. On DIV17, the cell nuclei were stained with the Hoechst dye and co-immunolabelled for NeuN, a protein found only in the nuclei of neurons. The neuronal and non-neuronal cell nuclei were scored for nuclear shrinkage, a hallmark of cell death, by high content imaging.
To assess cell death by high content imaging the cells were fixed on DIV17 in 1% formaldehyde, permeabilized with ethanol and incubated with a rabbit polyclonal IgG antibody against NeuN, a neuron-specific protein localized to the nucleus, followed by detection with a secondary anti-rabbit IgG antibody linked to a red fluorescent label. Neuronal and non-neuronal cell nuclei were then counterstained with the blue fluorescent nuclear dye Hoechst. The nuclei were counted by a high content imager based on signal intensity and size. A cut-off value was applied to exclude objects of low signal intensity considered noise. Then, cut-off values were applied to exclude objects with an area below 30 μM^2 considered cell debris and objects with an area above 300 μM^2 considered cell clumps. A boundary of 60 μM^2 was set to distinguish between nuclei from alive and dead cells. Objects areas of 30 μM^2 to 60 μM^2 were counted as nuclei from dead cells, while object areas of 60 μM^2 to 300 μM^2 were counted as nuclei from alive cells. The counting was done at 20-fold magnification on a fixed number of optical fields per well. The counts of nuclei from dead neurons or dead cells were related to the number of alive neurons or alive cells, respectively, in the same well.
Neuroglial cell cultures were supplemented with 1 mM citrate from DIV14 until DIV17. On DIV17, total cell death and neuron-specific cell death were quantified by high content imaging. The total number of Hoechst positive objects or NeuN positive objects prior to applying cut-off values for the signal intensity and the area size was equal between the different groups (FIG. 10 A, D).

[4] = tested on: primary rat neuronal-glial cell cultures; assay: Seahorse assay (OCR/ECAR), acute 1 h nutrient pre-incubation, resting or seizure-like conditions; format: cell-based; conditions: 1 mM citrate
Experimental: A Seahorse assay was performed on primary rat neuronal-glial cell cultures to determine the impact of pyruvate and citric acid on glycolytic rates and lactate delivery, mitochondrial respiration and total (glycolytic and mitochondrial) ATP production.
Rat cortical cells were isolated from embryonic day 18 embryos using a combination of enzymatic and mechanical dissociation of brain cortical rat tissue. Immediately after dissociation, the cells were seeded at a density of 500′000 cells per mL in 96-well plates and grown at 37° C. for two weeks from day in vitro (DIV) 0 until DIV14 in Neurobasal medium supplemented with 2% (v/v) B27, 0.8 mM Magnesium (Mg2+), 25 mM glucose and 1% (v/v) Penicillin/Streptomycin. During this time neuronal axons grew out and formed synaptic contacts. In addition, glial cells, foremost astrocytes, grew and formed contacts with neurons. The incubation in 25 mM glucose accelerated the differentiation and network growth of neurons.
From DIV14 until DIV17, the cells were incubated in Neurobasal medium supplemented with 2% (v/v) B27, 0.8 mM Mg2+, 5 mM glucose and 1% (v/v) Penicillin/Streptomycin. The switch from high to low glucose was done to approach the low intracerebral glucose concentration of the human brain and create a more physiological metabolic environment.
The switch from 5 mM to 1 mM glucose matched the glucose concentrations in the human brain. Meanwhile the switch from high (0.8 mM) to low (0.1 mM) Mg^2+ increases the electrical firing frequency of neurons because Mg2+ is an inhibitor of excitatory NMDA-type ionotropic glutamate receptors, which account for most of the neuronal firing in this cell culture model. The increase in neuronal firing caused by incubation in 0.1 mM Mg^2+ increases the energy production of neurons and glial cells as reflected in the increase in basal respiration (FIG. 1B and E). After 1 hour of pre-incubation in the Seahorse medium containing the nutrients, the oxygen consumption rate [OCRs] and extracellular acidification rate [ECARs] of the neuroglial culture were measured in the Seahorse assay.
The oxygen consumption rates (OCRs) and extracellular acidification rates (ECARs) of cells seeded in 96-well plates were monitored in real time at 37° C. in unbuffered Hanks Balanced Salt Solution (HBSS). The OCRs represent foremost mitochondrial respiration, and to a minor extent non-mitochondrial respiration. The ECARs relate foremost to the acidification of the medium with lactate produced through glycolysis and secreted by the cells into the medium (Table 1).
During the Seahorse run, both the OCRs and ECARs were measured simultaneously at baseline and following the injection of compounds by the Seahorse instrument (Table 1). HBSS was supplemented with glucose from the start and no glucose was injected through the Seahorse instruments. Measurements were repeated three times at baseline and three times after each compound injection.
After the initial baseline measurement, oligomycin (OM) was injected. OM blocks mitochondrial ATP synthase (complex V) and therefore decreases mitochondrial respiration. The OCRs after OM injection are due to the mitochondrial proton leak. They enable to determine whether the test nutrients impact the proton leak. The difference in OCRs at baseline and after OM injection is the amount of oxygen used for mitochondrial ATP synthesis at baseline. From this difference in OCR, the mitochondrial ATP production rates are calculated.
After OM, uncoupling agent carbonyl cyanide-p- trifluoromethoxyphenyl-hydrazon [FCCP] was injected which collapses the proton gradient across the inner mitochondrial membrane established during respiration and required for ATP synthesis. The cells attempt to restore the proton gradient following FCCP injection by maximizing respiration. […]

O=C(O)CC(O)(CC(=O)O)C(=O)O [citrate]
concentrations at which PFK1 isoforms are inhibited [1]: above 100 μM
increase in OM-induced glycolytic rates (tended) ([2]; 1 mM citrate, 0.1 mM Mg2+ medium): ~15%
increase in total (mitochondrial and glycolytic) ATP production ([2]; 1 mM citrate, 0.8 mM Mg2+ control medium, FIG. 3A): ~75%
increase in basal mitochondrial respiration ([2]; 1 mM citrate, 0.8 mM Mg2+ control medium, FIG. 3B): ~100%
increase in FCCP-driven maximal glycolytic capacity (tended) ([2]; 1 mM citrate, 0.8 mM Mg2+ control medium, FIG. 3E): ~35%
increase in basal glycolytic rates ([2]; 1 mM citrate, 0.8 mM Mg2+ medium, FIG. 3C): ~70%
increase in OM-induced glycolytic rates (tended) ([2]; 1 mM citrate, 0.8 mM Mg2+ medium): ~60%
increase in mitochondrial oxygen consumption rates (OCR) at baseline ([2]; resting, high Mg2+ medium (DMEM, 5 mM glucose), dose-dependent, vs control medium without citrate, FIG. 1E): ≤ 25%
increase in OM-induced proton leak ([2]; resting, high Mg2+ medium (DMEM, 5 mM glucose), vs control medium without citrate, FIG. 1F): ≤ 10%
effect on FCCP-driven maximal respiratory capacity ([2]; resting, high Mg2+ medium (DMEM, 5 mM glucose), vs control medium without citrate, FIG. 1G): not significantly impacting
increase in OM- and FCCP-induced maximal glycolytic capacity ([2]; resting, high Mg2+ medium, 0.25 mM citrate, FIG. 2E, F): 10-15%
increase in basal glycolytic rates and lactate secretion ([2]; resting, high Mg2+ medium, acute, dose-dependent, FIG. 2D): ~25%
increase in dead cell counts from high Mg2+ to low Mg2+ medium ([3]; DIV14-DIV17, chronic hyperstimulation, FIG. 10C/11C): ~4%
dead cell counts ([3]; DIV14-DIV17, high (0.8 mM) Mg2+ medium, FIG. 10C/11C): ~19%
dead neuron count (neuron death) ([3]; DIV14-DIV17, high Mg2+ medium, FIG. 10F/11F): −1.5%
dead cell counts ([3]; DIV14-DIV17, low (0.1 mM) Mg2+ medium, FIG. 10C/11C): ~23%
dead neuron count (neuron death) ([3]; DIV14-DIV17, low Mg2+ medium, FIG. 10F/11F): ~1.4%
effect on alive cell count ([3]; DIV14-DIV17, FIG. 10B/11B): not impacting
effect on rise in neuron death induced by chronic hyperstimulation ([3]; DIV14-DIV17, FIG. 10F/11F): entirely blocked
increase in total (mitochondrial and glycolytic) ATP production ([4]; 0.1 mM Mg2+ control medium, FIG. 3A): ~60%
increase in basal mitochondrial respiration ([4]; 0.1 mM Mg2+ control medium, FIG. 3B): ~40%
increase in basal glycolytic rates ([4]; 0.1 mM Mg2+ medium, FIG. 3C): ~20%
